Values joined by “and” are separate entries in the source; they are usually repeats but may differ in a detail not shown here. Identical values can stand only once. Toxic doses and inconclusive results are not listed. How the source made its calls: active means survival T/C of 150% or more; inactive means T/C below 125% in these data.
Tested on: AKR/Lw mice, AKR lymphoma ip, median survival T/C
Experiment: NCI In Vivo Anticancer Drug Screen. Data for tumor model Lymphoma AKR (Transplanted) (intraperitoneal) in AKR/Lw mice
Details: endpoint: median survival time, higher = longer survival
Method: The antitumor activity of compounds was measured in mice bearing transplantable tumors. Survival or tumor size were measured and the results are expressed as the measurement made in the treated group (T) divided by the measurement made in the vehicle treated control group (C). The tumor model used in this assay is Lymphoma AKR (Transplanted) (intraperitoneal) in AKR/Lw mice

[1] = dose: 100.0 mg/kg/injection, schedule: Q01DX001 (ip), vehicle: Klucel (hydroxypropylcellulose) (HPC)
[2] = dose: 200.0 mg/kg/injection, schedule: Q01DX001 (ip), vehicle: Klucel (hydroxypropylcellulose) (HPC)
[3] = dose: 400.0 mg/kg/injection, schedule: Q01DX001 (ip), vehicle: Klucel (hydroxypropylcellulose) (HPC)

Measured: T/C

O=C(O)CCCc1ccc(N(CCCl)CCCl)cc1
inactive: dose: 0.12 mg/kg/injection, schedule: Q01DX009 (ip), vehicle: Klucel (hydroxypropylcellulose) (HPC) 97 % of control | dose: 0.25 mg/kg/injection, schedule: Q01DX009 (ip), vehicle: Klucel (hydroxypropylcellulose) (HPC) 94 % of control and 96 % of control | dose: 0.5 mg/kg/injection, schedule: Q01DX009 (ip), vehicle: Klucel (hydroxypropylcellulose) (HPC) 100 % of control | dose: 1.0 mg/kg/injection, schedule: Q01DX009 (ip), vehicle: Klucel (hydroxypropylcellulose) (HPC) 96 % of control and 102 % of control | dose: 1.2 mg/kg/injection, schedule: Q01DX009 (ip), vehicle: Klucel (hydroxypropylcellulose) (HPC) 100 % of control | dose: 1.2 mg/kg/injection, schedule: Q04DX003 (ip), vehicle: Klucel (hydroxypropylcellulose) (HPC) 94 % of control | dose: 1.25 mg/kg/injection, schedule: Q04DX003 (ip), vehicle: saline 103 % of control | dose: 2.0 mg/kg/injection, schedule: Q01DX009 (ip), vehicle: Klucel (hydroxypropylcellulose) (HPC) 100 % of control | dose: 2.5 mg/kg/injection, schedule: Q01DX009 (ip), vehicle: Klucel (hydroxypropylcellulose) (HPC) 93 % of control and 107 % of control | dose: 2.5 mg/kg/injection, schedule: Q04DX003 (ip), vehicle: Klucel (hydroxypropylcellulose) (HPC) 100 % of control | dose: 2.5 mg/kg/injection, schedule: Q04DX003 (ip), vehicle: saline 86 % of control and 118 % of control | dose: 3.75 mg/kg/injection, schedule: Q01DX009 (ip), vehicle: saline 119 % of control | dose: 4.0 mg/kg/injection, schedule: Q01DX009 (ip), vehicle: Klucel (hydroxypropylcellulose) (HPC) 118 % of control | dose: 5.0 mg/kg/injection, schedule: Q01DX009 (ip), vehicle: Klucel (hydroxypropylcellulose) (HPC) 86 % of control and 110 % of control | dose: 5.0 mg/kg/injection, schedule: Q04DX003 (ip), vehicle: Klucel (hydroxypropylcellulose) (HPC) 100 % of control and 105 % of control and 117 % of control | dose: 5.0 mg/kg/injection, schedule: Q04DX003 (ip), vehicle: saline 93 % of control and 97 % of control | dose: 6.2 mg/kg/injection, schedule: Q01DX001 (ip), vehicle: Klucel (hydroxypropylcellulose) (HPC) 95 % of control and 120 % of control | dose: 6.25 mg/kg/injection, schedule: Q01DX009 (ip), vehicle: saline 97 % of control | dose: 7.5 mg/kg/injection, schedule: Q01DX009 (ip), vehicle: Klucel (hydroxypropylcellulose) (HPC) 106 % of control | dose: 7.5 mg/kg/injection, schedule: Q01DX009 (ip), vehicle: saline 122 % of control | dose: 12.5 mg/kg/injection, schedule: Q01DX001 (ip), vehicle: Klucel (hydroxypropylcellulose) (HPC) 109 % of control and 118 % of control | dose: 12.5 mg/kg/injection, schedule: Q01DX001 (ip), vehicle: saline 109 % of control and 111 % of control | dose: 15.0 mg/kg/injection, schedule: Q01DX009 (ip), vehicle: saline 122 % of control | dose: 20.0 mg/kg/injection, schedule: Q04DX003 (ip), vehicle: saline 94 % of control | dose: 40.0 mg/kg/injection, schedule: Q04DX003 (ip), vehicle: Klucel (hydroxypropylcellulose) (HPC) 100 % of control | [1] 104 % of control

COc1cccc(CNc2cccc(Cl)c2Cl)c1OC
inactive: dose: 200.0 mg/kg/injection, schedule: Q01DX001 (ip), vehicle: saline with Tween-80 93 % of control and 100 % of control | dose: 400.0 mg/kg/injection, schedule: Q01DX001 (ip), vehicle: saline with Tween-80 93 % of control and 113 % of control

COC(=O)C1(C)CCC(c2ccc(OC)cc2)C(CC(=O)O)C1=O (stereo unspecified)
inactive: dose: 50.0 mg/kg/injection, schedule: Q04DX003 (ip), vehicle: Klucel (hydroxypropylcellulose) (HPC) 100 % of control | [1] 100 % of control | dose: 100.0 mg/kg/injection, schedule: Q04DX003 (ip), vehicle: Klucel (hydroxypropylcellulose) (HPC) 100 % of control | [2] 113 % of control | [3] 105 % of control

O=C(O)CCC(=O)Nc1cccc(Oc2ccc([N+](=O)[O-])cc2[N+](=O)[O-])c1
inactive: [1] 100 % of control | [2] 87 % of control | [3] 90 % of control

Nc1nc(=S)c2ncn(C3CC(O)C(CO)O3)c2[nH]1 (stereo unspecified)
inactive: dose: 12.5 mg/kg/injection, schedule: Q01DX009 (ip), vehicle: saline 93 % of control | dose: 25.0 mg/kg/injection, schedule: Q04DX003 (ip), vehicle: saline 108 % of control | dose: 50.0 mg/kg/injection, schedule: Q04DX003 (ip), vehicle: saline 102 % of control and 119 % of control | dose: 100.0 mg/kg/injection, schedule: Q01DX001 (ip), vehicle: saline 100 % of control | dose: 100.0 mg/kg/injection, schedule: Q04DX003 (ip), vehicle: other 98 % of control and 123 % of control | dose: 200.0 mg/kg/injection, schedule: Q01DX001 (ip), vehicle: saline 102 % of control | dose: 200.0 mg/kg/injection, schedule: Q01DX009 (ip), vehicle: saline 86 % of control and 105 % of control and 116 % of control | dose: 200.0 mg/kg/injection, schedule: Q04DX003 (ip), vehicle: saline 108 % of control and 112 % of control and 116 % of control | dose: 300.0 mg/kg/injection, schedule: Q04DX003 (ip), vehicle: saline 119 % of control | dose: 400.0 mg/kg/injection, schedule: Q01DX009 (ip), vehicle: saline 103 % of control and 110 % of control | dose: 400.0 mg/kg/injection, schedule: Q04DX003 (ip), vehicle: other 113 % of control | dose: 400.0 mg/kg/injection, schedule: Q04DX003 (ip), vehicle: saline 116 % of control and 122 % of control | dose: 500.0 mg/kg/injection, schedule: Q01DX001 (ip), vehicle: saline 105 % of control and 107 % of control and 121 % of control | dose: 500.0 mg/kg/injection, schedule: Q04DX003 (ip), vehicle: saline 103 % of control | dose: 600.0 mg/kg/injection, schedule: Q01DX001 (ip), vehicle: saline 102 % of control and 111 % of control and 119 % of control | dose: 600.0 mg/kg/injection, schedule: Q04DX003 (ip), vehicle: saline 93 % of control and 100 % of control

Cc1ccc(N=C(c2ccc([N+](=O)[O-])cc2)c2ccc([N+](=O)[O-])cc2)cc1
inactive: dose: 50.0 mg/kg/injection, schedule: Q01DX001 (ip), vehicle: Klucel (hydroxypropylcellulose) (HPC) 105 % of control | [1] 96 % of control | [2] 93 % of control and 100 % of control | [3] 100 % of control

Source: PubChem BioAssay AID190 (DTP/NCI, 2004)
